System: Plasmodium berghei
Assay: Luciferase/luciferin-expressing antifolate-resistant parasites were used to infect a culture of HepG2 cells that were pre-incubated with compounds. Infected hepatocytes emit light due to the luciferase reaction. Assay results are presented as the percent inhibition of light emission compared to control. […]
Assay type: functional
Conditions: sporozoite; for IC90: read-out: LUCIFERASE INFECTION ASSAY - IC90
[1] = read-out: LUCIFERASE INFECTION ASSAY - IC50

Compound	IC90 [µM]	IC50 [1] [µM]	further results
CCc1ccc(/C=C/c2ccc3cccc(O)c3n2)cc1	0.313		IC50 (FFLUC_HILL_SLOPE 27.9, FFLUC_R_SQUARED 0.597, HEPG2TOX_HILL_SLOPE 1.09, HEPG2TOX_R_SQUARED 0.82, PBLUC_HILL_SLOPE 3.2, PBLUC_R_SQUARED 0.533, read-out: LUCIFERASE INFECTION ASSAY - IC50): 0.157 µM
N#Cc1c(Cl)c2ccccc2[nH]c1=O	> 16.1	14.9	
Cc1ccc(C)c(S(=O)(=O)N(Cc2nnc(-c3ccc(Cl)cc3)o2)c2cccc(C(F)(F)F)c2)c1	> 10	> 10	
O=C(Nc1ccc(-c2nc(-c3ccc(O)c(O)c3)cs2)cc1)c1cccs1	> 10	> 10	
N#C/C(=N\Nc1ccc(F)cc1)C(=O)c1ccc(Cl)cc1	> 10.9	9.59	
CCOC(=O)c1[nH]c(C)c(C(=O)/C=C/c2c(C)nn3c(C(F)(F)F)ccnc23)c1C	0.365		IC50 (HEPG2TOX_HILL_SLOPE 1.29, HEPG2TOX_R_SQUARED 0.824, PBLUC_HILL_SLOPE 0.936, PBLUC_R_SQUARED 0.825, read-out: LUCIFERASE INFECTION ASSAY - IC50): 0.0349 µM
CC(C)(C)c1ccc(-c2nnc(SCC(=O)N(Cc3ccccc3)c3nc(-c4ccc(Cl)cc4)cs3)n2-c2ccc(Br)cc2)cc1	> 10	> 10	
O=[N+]([O-])c1ccc(Nc2nc3ccc(Cl)cc3o2)cc1	> 10	> 10	
Cc1nn(-c2nc3ccccc3s2)c2c1C(c1cc(Br)c(O)c(Br)c1)C1C(=O)CCCC1=N2 (configuration not stated)	> 10		IC50 (FFLUC_HILL_SLOPE 9.07, FFLUC_R_SQUARED 0.197, PBLUC_HILL_SLOPE 1.11, PBLUC_R_SQUARED 0.592, read-out: LUCIFERASE INFECTION ASSAY - IC50): 4.69 µM
Cc1c(Sc2ccc(Cl)cc2)c2ccccn2c1C(=O)c1cccs1	> 10		IC50 (PBLUC_HILL_SLOPE 3.16, PBLUC_R_SQUARED 0.487, read-out: LUCIFERASE INFECTION ASSAY - IC50): 6.35 µM
CC(Sc1nc(-c2ccccc2)c(-c2ccccc2)o1)C(=O)N1CCCC1 (configuration not stated)	1.48		IC50 (HEPG2TOX_HILL_SLOPE 2.22, HEPG2TOX_R_SQUARED 0.0759, PBLUC_HILL_SLOPE 15.7, PBLUC_R_SQUARED 0.556, read-out: LUCIFERASE INFECTION ASSAY - IC50): 1.29 µM
COc1ccc2c(c1)CCCC21NC(=O)N(Cc2nc3ccccc3s2)C1=O (configuration not stated)	8.43		IC50 (PBLUC_HILL_SLOPE 1.51, PBLUC_R_SQUARED 0.684, read-out: LUCIFERASE INFECTION ASSAY - IC50): 1.97 µM
COc1cc(-c2cnc3cnc(-c4cccnc4)cn23)ccc1O	3.99		IC50 (PBLUC_HILL_SLOPE 15.7, PBLUC_R_SQUARED 0.533, read-out: LUCIFERASE INFECTION ASSAY - IC50): 3.47 µM
CCc1c(C#N)c(SCC(=O)c2cc(C)n(-c3ccccc3F)c2C)nc2c1C(=O)CC(C)(C)C2	> 10	5.79	
COc1ccc(C2=NOC(C(N)=O)C2)cc1OC (configuration not stated)	9.25		IC50 (PBLUC_HILL_SLOPE 2.3, PBLUC_R_SQUARED 0.443, read-out: LUCIFERASE INFECTION ASSAY - IC50): 3.55 µM
COCC(C)Nc1ncnc2scc(-c3ccc(OC)cc3)c12 (configuration not stated)	4.03		IC50 (HEPG2TOX_HILL_SLOPE 7.42, HEPG2TOX_R_SQUARED 0.779, PBLUC_HILL_SLOPE 12.3, PBLUC_R_SQUARED 0.781, read-out: LUCIFERASE INFECTION ASSAY - IC50): 3.37 µM
COc1ccc(NS(=O)(=O)c2cc(NC(=O)c3cccc(OC(F)F)c3)ccc2N2CCCCC2)cc1	> 10		IC50 (FFLUC_HILL_SLOPE 8.96, FFLUC_R_SQUARED 0.85, read-out: LUCIFERASE INFECTION ASSAY - IC50): > 10 µM
CN(CCCc1[nH]nc(N)c1C#N)c1nc(-c2ccccn2)nc2scc(-c3ccccc3)c12	> 10	7.69	
Cc1cc(C(C)(C)C)cc(C)c1COC(=O)/C(=C/c1ccccc1)n1nnnc1C	> 10	> 10	
Cc1cc2occ(CC(=O)N(c3ccc(F)cc3)c3nc4ccccc4s3)c2cc1C(C)C	> 10		IC50 (FFLUC_HILL_SLOPE 13, FFLUC_R_SQUARED 0.172, read-out: LUCIFERASE INFECTION ASSAY - IC50): > 10 µM
COc1cc(NC(=O)CSc2nc(N)c3c4c(sc3n2)CCCC4)c(C)cc1[N+](=O)[O-]	> 10	3.53	
COc1ccc(C(=O)/C(=C/c2ccc(C)cc2C)c2nc3ccccc3[nH]2)cc1	4.07		IC50 (FFLUC_HILL_SLOPE 13.7, FFLUC_R_SQUARED 0.282, HEPG2TOX_HILL_SLOPE 10.4, HEPG2TOX_R_SQUARED 0.664, PBLUC_HILL_SLOPE 15.9, PBLUC_R_SQUARED 0.277, read-out: LUCIFERASE INFECTION ASSAY - IC50): 3.54 µM
Cc1cc(O)nc(N/N=C/c2c(C)nn(-c3ccccc3Cl)c2Cl)n1	2.19		IC50 (PBLUC_HILL_SLOPE 2.61, PBLUC_R_SQUARED 0.512, read-out: LUCIFERASE INFECTION ASSAY - IC50): 0.943 µM

Compound	IC90 [µM]	IC50 [1] [µM]	further results
O=C(Nc1nc2c(s1)CCCC2)c1c[nH]c(=S)n1-c1ccccc1	> 10	> 10	
O=C(CN1C(=O)NC(Cc2ccccc2)(c2ccccc2)C1=O)N1CCc2ccccc2C1 (configuration not stated)	> 10		IC50 (PBLUC_HILL_SLOPE 3.92, PBLUC_R_SQUARED 0.472, read-out: LUCIFERASE INFECTION ASSAY - IC50): 7.9 µM
CCN(Cc1ccccc1)S(=O)(=O)c1cc(C(=O)OCc2ccccc2Cl)ccc1OC	> 10	> 10	
CCNc1ccc(S(=O)(=O)C(F)(F)F)cc1NC(=O)c1ccccc1NS(=O)(=O)c1ccc(F)cc1	> 10	1.44	
COc1ccc(/C=C2\CN(Cc3ccccc3)CC3(C=NN(CCO)C3c3ccc(OC)cc3)C2)cc1 (configuration not stated)	> 6.63	> 6.63	
Cn1ccc2cc(-c3cn4c(-c5ccc6c(c5)OCO6)cnc4cn3)ccc21	0.402		IC50 (HEPG2TOX_HILL_SLOPE 0.831, HEPG2TOX_R_SQUARED 0.884, PBLUC_HILL_SLOPE 11.3, PBLUC_R_SQUARED 0.726, read-out: LUCIFERASE INFECTION ASSAY - IC50): 0.33 µM
O=C(Nc1cccc(/C=C/c2ccc3cccc(O)c3n2)c1)C(F)(F)F	> 10		IC50 (PBLUC_HILL_SLOPE 13.5, PBLUC_R_SQUARED 0.34, read-out: LUCIFERASE INFECTION ASSAY - IC50): 8.84 µM
CCCn1nc(C(=O)Nc2ccccc2N2CCc3ccccc3C2)ccc1=O	> 10		IC50 (HEPG2TOX_HILL_SLOPE 0.246, HEPG2TOX_R_SQUARED 0.177, PBLUC_HILL_SLOPE 1.82, PBLUC_R_SQUARED 0.418, read-out: LUCIFERASE INFECTION ASSAY - IC50): 4.28 µM
CCOc1ccc(N2C(=O)c3ccccc3C(C=NNc3ccc(S(=O)(=O)N(CC)CC)cc3[N+](=O)[O-])C2=O)cc1 (configuration not stated)	> 10	> 10	
O=C1c2ccccc2C(O)(C#Cc2ccccc2)N1c1ccccc1 (configuration not stated)	8.45		IC50 (HEPG2TOX_HILL_SLOPE 4.52, HEPG2TOX_R_SQUARED 0.977, PBLUC_HILL_SLOPE 3.23, PBLUC_R_SQUARED 0.385, read-out: LUCIFERASE INFECTION ASSAY - IC50): 4.28 µM
CC(CCc1ccccc1)NC(=O)Cn1c(=O)c(=O)n(Cc2ccccc2)c2ccc(Cl)cc21 (configuration not stated)	> 10		IC50 (FFLUC_HILL_SLOPE 12.6, FFLUC_R_SQUARED 0.716, read-out: LUCIFERASE INFECTION ASSAY - IC50): > 10 µM
CN(CCOc1ccccc1F)C(=O)c1cc(S(=O)(=O)N2CCCC2)c[nH]1	> 2	> 2	
COc1ccc(C(C)(O)c2nc(-c3cccc(F)c3)cs2)cc1 (configuration not stated)	5.23	5.17	
CNC(=S)Nc1ccc(-n2cnc3ccccc32)cc1	> 10	> 10	
CS(=O)(=O)c1ncc(Cl)c(C(=O)C(C#N)c2ccc3ccccc3n2)n1 (configuration not stated)	4.88		IC50 (HEPG2TOX_HILL_SLOPE 3.45, HEPG2TOX_R_SQUARED 0.508, PBLUC_HILL_SLOPE 8.67, PBLUC_R_SQUARED 0.634, read-out: LUCIFERASE INFECTION ASSAY - IC50): 3.78 µM
NS(=O)(=O)c1ccc(CCNc2nn3c(-c4ccc(Cl)cc4)cnc3s2)cc1	> 7.6	> 7.6	
O=C(Nc1ccccc1)c1cn(-c2ccc3c(c2)OCCO3)nn1	5.96		IC50 (FFLUC_HILL_SLOPE 1.49, FFLUC_R_SQUARED 0.912, PBLUC_HILL_SLOPE 0.315, PBLUC_R_SQUARED 0.673, read-out: LUCIFERASE INFECTION ASSAY - IC50): 0.00562 µM
Nc1ccc(-c2cn3c(-c4ccc5ncccc5c4)cnc3cn2)cn1	8.67		IC50 (HEPG2TOX_HILL_SLOPE 12.3, HEPG2TOX_R_SQUARED 0.596, PBLUC_HILL_SLOPE 12.7, PBLUC_R_SQUARED 0.251, read-out: LUCIFERASE INFECTION ASSAY - IC50): 7.29 µM
CC(C)Cc1ccc(C(C)NC(=O)c2ccc(CNC(N)=O)cc2)cc1 (configuration not stated)	> 10		IC50 (HEPG2TOX_HILL_SLOPE 1.82, HEPG2TOX_R_SQUARED 0.295, read-out: LUCIFERASE INFECTION ASSAY - IC50): > 10 µM
O=C(NCc1cccs1)C1Cc2c(-c3ccccc3)ccnc2O1 (configuration not stated)	6.65		IC50 (HEPG2TOX_HILL_SLOPE 2.36, HEPG2TOX_R_SQUARED 0.977, PBLUC_HILL_SLOPE 2.08, PBLUC_R_SQUARED 0.632, read-out: LUCIFERASE INFECTION ASSAY - IC50): 2.31 µM
CCOc1ccccc1NC(=O)CN(C)S(=O)(=O)c1ccc(OC)c(C)c1	> 8.41	> 8.41	
CC(=O)Nc1nc(C(=O)Nc2nc3ccccc3n2C2CCCCC2)cs1	> 10	> 10	
CSc1nccc(-c2ccc(Cl)cc2)n1	> 13.9		IC50 (FFLUC_HILL_SLOPE 5.64, FFLUC_R_SQUARED 0.137, read-out: LUCIFERASE INFECTION ASSAY - IC50): > 13.9 µM

Reference: ChEMBL document CHEMBL4483862, “Open-source discovery of chemical leads for next-generation chemoprotective antimalarials” (2018)
